Source: US20140155371A1, “MULTICOMPONENT CRYSTALLINE SYSTEM OF EZETIMIBE AND PROLINE” (BASF SE, priority 2011, published 2014)
Blank lines part the entries; values can stand above or below the molecule they belong to.

Experiments:
[1] = Dynamic (water) vapor sorption (DVS); format: physicochemical
Text: Dynamic (water) vapor sorption (DVS) is a method well known in the art to monitor the adsorption of water on a solid material. Therefore, DVS is a suitable method to determine the hygroscopic nature of a pharmaceutical active ingredient.
The crystalline form A described in WO 06/060808 (i.e. the free base) and the present composition (as obtained in example 3 further below) are subjected to a DVS experiment; results are shown in FIG. 4 and in the below Table 1. The crystalline composition is less prone to water uptake under humidity, and is easy to formulate compared to the crystalline anhydrous (“free base”) form of Ezetimibe (see Table 1).
Dynamic (water) vapour sorption (DVS) is performed with a Surface Measurement Systems Ltd. DVS-1 water sorption analyzer or with SPS11-100n moisture sorption instrument from Projekt Meβtechnik, Ulm, Germany.
Program: The relative humidity is kept at starting value of 0% for 5 hours, then continuously scanned from 0% to 60%, kept constant at 60% for 4 hours, and then scanned to 0% relative humidity, and kept constant for 4 hours. The scanning change rate of relative humidity is 5% per hour.

LDL levels = settings: Ezetimibe added to statin therapy; compared with 6% by doubling the dose of statins; cited from earlier work

Water vapor sorption: water content after 4 h at 60% r.h. ([1]; after 4 h at 60% r.h.): 4.3%
Water vapor sorption: water content after 10 h at 50% r.h. ([1]; after 10 h at 50% r.h.): 4.0%
water uptake ([1]; at 60% relative humidity, FIG. 4): about 4.3%
relative humidity at which hydrate formation starts ([1]; increasing ambient humidity, FIG. 4 dashed line): about 50%
Structure (SMILES): O=C1[C@H](CC[C@H](O)c2ccc(F)cc2)[C@@H](c2ccc(O)cc2)N1c1ccc(F)cc1 [1-(4-Fluorophenyl)-3(R)-[3-(4-fluorophenyl)-3(S)-hydroxypropyl]-4(S)-(4-hydroxyphenyl)azetidin-2-one]

Structure (SMILES): O=C1[C@H](CC[C@H](O)c2ccc(F)cc2)[C@@H](c2ccc(O)cc2)N1c1ccc(F)cc1 [Ezetimibe, 1-(4-Fluorophenyl)-3(R)-[3-(4-fluorophenyl)-3(S)-hydroxypropyl]-4(S)-(4-hydroxyphenyl)azetidin-2-one]
reduction in LDL levels (LDL levels): 15%

relative humidity below which the hydrate begins to lose water ([1]; decreasing humidity, FIG. 4): about 25%
Structure (SMILES): O=C1[C@H](CC[C@H](O)c2ccc(F)cc2)[C@@H](c2ccc(O)cc2)N1c1ccc(F)cc1 [hydrate form]
